{"source": "ChEMBL document CHEMBL3885861", "about": "“Open TG-GATES”", "species": "Rattus norvegicus", "experiment": "Open TG-GATES - Regimen: Daily Repeat", "format": "toxicity, organism-based, Sprague-Dawley", "set-up": "regimen Daily Repeat, gender Male, age 6 weeks", "details": "in vivo, po, 100 mg/kg, […], route gavage, dose level Low; for KIDNEY_L / KIDNEY_R / KIDNEY_TOTAL: tissue Kidney; for LIVER: tissue Liver; for A/G / ALP / ALT / AST / BUN / CRE / Ca / Cl / DBIL / GLC / IP / K / LDH / Na / PL / RALB / TBIL / TC / TG / TP / gamma-GTP: tissue Plasma", "data": [{"smiles": "CCCCNC(=O)NS(=O)(=O)c1ccc(C)cc1", "note": "[TOLBUTAMIDE]", "values": [{"measurement": "Lym", "setting": "tissue Blood, time 28 day", "value": 80.4, "unit": "%"}, {"measurement": "MCH", "setting": "tissue Blood, time 28 day", "value": 18.8, "unit": "pg"}, {"measurement": "MCHC", "setting": "tissue Blood, time 28 day", "value": 33.5, "unit": "%"}, {"measurement": "MCV", "setting": "tissue Blood, time 28 day", "value": 56.1, "unit": "fL"}, {"measurement": "Mono", "setting": "tissue Blood, time 28 day", "value": 2.4, "unit": "%"}, {"measurement": "Neu", "setting": "tissue Blood, time 28 day", "value": 14.8, "unit": "%"}, {"measurement": "PT", "setting": "tissue Blood, time 28 day", "value": 13.5, "unit": "s"}, {"measurement": "Plat", "setting": "tissue Blood, time 28 day", "value": 102.7, "unit": "x10_4/uL"}, {"measurement": "RBC", "setting": "tissue Blood, time 28 day", "value": 831.6, "unit": "x10_4/ul"}, {"measurement": "Ret", "setting": "tissue Blood, time 28 day", "value": 2.4, "unit": "%"}, {"measurement": "WBC", "setting": "tissue Blood, time 28 day", "value": 116.4, "unit": "x10_2/uL"}, {"measurement": "KIDNEY_L", "setting": "time 7 day", "value": 1.2, "unit": "g"}, {"measurement": "KIDNEY_R", "setting": "time 7 day", "value": 1.2, "unit": "g"}, {"measurement": "KIDNEY_TOTAL", "setting": "time 7 day", "value": 2.3, "unit": "g"}, {"measurement": "KIDNEY_L", "setting": "time 14 day", "value": 1.2, "unit": "g"}, {"measurement": "KIDNEY_R", "setting": "time 14 day", "value": 1.2, "unit": "g"}, {"measurement": "KIDNEY_TOTAL", "setting": "time 14 day", "value": 2.4, "unit": "g"}, {"measurement": "KIDNEY_L", "setting": "time 28 day", "value": 1.3, "unit": "g"}, {"measurement": "KIDNEY_R", "setting": "time 28 day", "value": 1.3, "unit": "g"}, {"measurement": "KIDNEY_TOTAL", "setting": "time 28 day", "value": 2.7, "unit": "g"}, {"measurement": "LIVER", "setting": "time 7 day", "value": 12.8, "unit": "g"}, {"measurement": "LIVER", "setting": "time 14 day", "value": 13.1, "unit": "g"}, {"measurement": "LIVER", "setting": "time 28 day", "value": 15.8, "unit": "g"}, {"measurement": "A/G", "setting": "time 7 day", "value": 0.9}, {"measurement": "ALP", "setting": "time 7 day", "value": 1801.2, "unit": "IU/L"}, {"measurement": "ALT", "setting": "time 7 day", "value": 43.8, "unit": "IU/L"}, {"measurement": "AST", "setting": "time 7 day", "value": 68, "unit": "IU/L"}, {"measurement": "BUN", "setting": "time 7 day", "value": 17.6, "unit": "mg/dL"}, {"measurement": "CRE", "setting": "time 7 day", "value": 0.2, "unit": "mg/dL"}, {"measurement": "Ca", "setting": "time 7 day", "value": 10.9, "unit": "mg/dL"}, {"measurement": "Cl", "setting": "time 7 day", "value": 104.4, "unit": "meq/L"}, {"measurement": "DBIL", "setting": "time 7 day", "value": 0.01, "unit": "mg/dL"}, {"measurement": "GLC", "setting": "time 7 day", "value": 197.4, "unit": "mg/dL"}, {"measurement": "IP", "setting": "time 7 day", "value": 7.9, "unit": "mg/dL"}, {"measurement": "K", "setting": "time 7 day", "value": 4.1, "unit": "meq/L"}, {"measurement": "LDH", "setting": "time 7 day", "value": 55.6, "unit": "IU/L"}, {"measurement": "Na", "setting": "time 7 day", "value": 141.8, "unit": "meq/L"}, {"measurement": "PL", "setting": "time 7 day", "value": 165.2, "unit": "mg/dL"}, {"measurement": "RALB", "setting": "time 7 day", "value": 2.6, "unit": "g/dL"}, {"measurement": "TBIL", "setting": "time 7 day", "value": 0.056, "unit": "mg/dL"}, {"measurement": "TC", "setting": "time 7 day", "value": 79.6, "unit": "mg/dL"}, {"measurement": "TG", "setting": "time 7 day", "value": 138.4, "unit": "mg/dL"}, {"measurement": "TP", "setting": "time 7 day", "value": 5.5, "unit": "g/dL"}, {"measurement": "gamma-GTP", "setting": "time 7 day", "value": 1.2, "unit": "IU/L"}, {"measurement": "A/G", "setting": "time 14 day", "value": 0.8}, {"measurement": "ALP", "setting": "time 14 day", "value": 1429.8, "unit": "IU/L"}, {"measurement": "ALT", "setting": "time 14 day", "value": 37.2, "unit": "IU/L"}, {"measurement": "AST", "setting": "time 14 day", "value": 67.4, "unit": "IU/L"}, {"measurement": "BUN", "setting": "time 14 day", "value": 16.8, "unit": "mg/dL"}, {"measurement": "CRE", "setting": "time 14 day", "value": 0.2, "unit": "mg/dL"}, {"measurement": "Ca", "setting": "time 14 day", "value": 10.7, "unit": "mg/dL"}, {"measurement": "Cl", "setting": "time 14 day", "value": 104.6, "unit": "meq/L"}, {"measurement": "DBIL", "setting": "time 14 day", "value": 0.014, "unit": "mg/dL"}, {"measurement": "GLC", "setting": "time 14 day", "value": 196.2, "unit": "mg/dL"}, {"measurement": "IP", "setting": "time 14 day", "value": 7.1, "unit": "mg/dL"}, {"measurement": "K", "setting": "time 14 day", "value": 3.8, "unit": "meq/L"}, {"measurement": "LDH", "setting": "time 14 day", "value": 60.8, "unit": "IU/L"}, {"measurement": "Na", "setting": "time 14 day", "value": 143.2, "unit": "meq/L"}, {"measurement": "PL", "setting": "time 14 day", "value": 135, "unit": "mg/dL"}, {"measurement": "RALB", "setting": "time 14 day", "value": 2.6, "unit": "g/dL"}, {"measurement": "TBIL", "setting": "time 14 day", "value": 0.062, "unit": "mg/dL"}, {"measurement": "TC", "setting": "time 14 day", "value": 61.6, "unit": "mg/dL"}, {"measurement": "TG", "setting": "time 14 day", "value": 141.6, "unit": "mg/dL"}, {"measurement": "TP", "setting": "time 14 day", "value": 5.7, "unit": "g/dL"}, {"measurement": "gamma-GTP", "setting": "time 14 day", "value": 1.2, "unit": "IU/L"}, {"measurement": "A/G", "setting": "time 28 day", "value": 0.8}, {"measurement": "ALP", "setting": "time 28 day", "value": 1233.8, "unit": "IU/L"}, {"measurement": "ALT", "setting": "time 28 day", "value": 38, "unit": "IU/L"}, {"measurement": "AST", "setting": "time 28 day", "value": 63.8, "unit": "IU/L"}, {"measurement": "BUN", "setting": "time 28 day", "value": 17.8, "unit": "mg/dL"}, {"measurement": "CRE", "setting": "time 28 day", "value": 0.3, "unit": "mg/dL"}, {"measurement": "Ca", "setting": "time 28 day", "value": 10.7, "unit": "mg/dL"}, {"measurement": "Cl", "setting": "time 28 day", "value": 105.2, "unit": "meq/L"}, {"measurement": "DBIL", "setting": "time 28 day", "value": 0.012, "unit": "mg/dL"}, {"measurement": "GLC", "setting": "time 28 day", "value": 188.6, "unit": "mg/dL"}, {"measurement": "IP", "setting": "time 28 day", "value": 6.7, "unit": "mg/dL"}, {"measurement": "K", "setting": "time 28 day", "value": 3.9, "unit": "meq/L"}, {"measurement": "LDH", "setting": "time 28 day", "value": 49.8, "unit": "IU/L"}, {"measurement": "Na", "setting": "time 28 day", "value": 143, "unit": "meq/L"}, {"measurement": "PL", "setting": "time 28 day", "value": 151.2, "unit": "mg/dL"}, {"measurement": "RALB", "setting": "time 28 day", "value": 2.7, "unit": "g/dL"}, {"measurement": "TBIL", "setting": "time 28 day", "value": 0.058, "unit": "mg/dL"}, {"measurement": "TC", "setting": "time 28 day", "value": 68.8, "unit": "mg/dL"}, {"measurement": "TG", "setting": "time 28 day", "value": 174.6, "unit": "mg/dL"}, {"measurement": "TP", "setting": "time 28 day", "value": 6.2, "unit": "g/dL"}, {"measurement": "gamma-GTP", "setting": "time 28 day", "value": 1, "unit": "IU/L"}]}]}
